Consider 4 molecules from patent publication US12427157B2, “Methods for treatment of diseases involving acidic or hypoxic diseased tissues” (Cybrexa 1, Inc., priority 2018, dated 2025).

Structures are written as SMILES.

The target of test [1] is T1, PARP (Homo sapiens, UniProt P09874). The test is described as follows: Enzymatic Assay 1: HT F Homogeneous PARP Inhibition Assay of cleaved compounds. In kind it is biochemical. The arrangement: purchased Trevigen #4690-096-K (Assay 1); #4676-096-K (Assay 2).
T1 sequence (P09874 whole entry): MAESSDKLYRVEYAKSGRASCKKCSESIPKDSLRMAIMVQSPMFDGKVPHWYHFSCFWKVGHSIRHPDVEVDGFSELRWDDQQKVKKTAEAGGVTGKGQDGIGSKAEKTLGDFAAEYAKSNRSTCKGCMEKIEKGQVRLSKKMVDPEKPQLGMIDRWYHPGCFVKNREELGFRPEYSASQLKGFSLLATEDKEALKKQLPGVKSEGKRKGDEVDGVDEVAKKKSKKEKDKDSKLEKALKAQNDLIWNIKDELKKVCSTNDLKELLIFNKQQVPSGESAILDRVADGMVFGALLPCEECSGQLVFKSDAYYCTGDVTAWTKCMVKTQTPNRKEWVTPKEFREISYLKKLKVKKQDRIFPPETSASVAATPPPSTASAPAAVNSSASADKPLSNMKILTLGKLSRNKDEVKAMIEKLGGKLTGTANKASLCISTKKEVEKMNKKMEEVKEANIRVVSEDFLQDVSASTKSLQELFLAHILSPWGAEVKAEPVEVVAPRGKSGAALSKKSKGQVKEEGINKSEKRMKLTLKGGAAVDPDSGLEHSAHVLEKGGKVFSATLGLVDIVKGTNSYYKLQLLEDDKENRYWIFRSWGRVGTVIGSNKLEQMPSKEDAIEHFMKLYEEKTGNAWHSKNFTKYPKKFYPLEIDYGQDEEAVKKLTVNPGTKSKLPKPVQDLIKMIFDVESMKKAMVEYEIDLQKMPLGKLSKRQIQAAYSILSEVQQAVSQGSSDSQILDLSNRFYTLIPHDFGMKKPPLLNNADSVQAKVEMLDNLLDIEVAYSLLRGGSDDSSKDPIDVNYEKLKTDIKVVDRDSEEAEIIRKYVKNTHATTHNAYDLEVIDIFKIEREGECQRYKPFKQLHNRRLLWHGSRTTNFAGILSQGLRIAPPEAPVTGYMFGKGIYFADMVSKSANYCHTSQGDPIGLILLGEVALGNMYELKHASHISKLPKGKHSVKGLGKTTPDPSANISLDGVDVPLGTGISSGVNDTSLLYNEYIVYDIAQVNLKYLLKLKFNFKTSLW
Test [2] has as its target T1, PARP. The test is described as follows: Enzymatic Assay 2: HT Universal Chemiluminescent PARP Assay of cleaved compounds.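 Also: PARP reaction with activated DNA run 1 h at room temperature, product detected via streptavidin-HRP and luminescence endpoint reading on a plate reader.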
The test system of another test is DLD-1 BRCA2−/− cells. Description: Growth delay assay. Format: cell-based, Human. The note with it: pH 7.4, BRCA (−/−) DLD-1, 96 h. The protocol:
Cells were plated in 96 well black walled-clear bottom plates (Griener), DLD-1 WT cells at 2500 cells per well, DLD-1 BRCA2−/− at 5000 cells per well, in growth media containing 10% FBS. Cells were allowed to adhere at room temperature for 60 minutes before returning to a 37 C, 5% CO2 incubator. After 24 hours, media was removed and replaced with fresh growth media containing various drug concentrations. Each drug concentration was added in triplicate. Non-drug treated controls contained growth media only. Cells were returned to the incubator. Ninety-six hours after addition of drug, cells were fixed with 4% paraformaldehyde for 20 minutes and stained with Hoechst at 1 ug/mL. The plates were imaged on a Cytation 5 auto imager (BioTek) and cells were counted using CellProfiler (http://cellprofiler.org). The percent cell growth delay was calculated and data plotted using GraphPad Prism.

[3] abbreviates: read-out: IC50 Enzymatic Assay 2, Examples cleaved per Example A (crude cleavage solution), R^8H starting materials as such.

In the case of `CC(C)C[C@H](NC(=O)[C@H](Cc1ccc(O)cc1)NC(=O)[C@H](C)NC(=O)[C@H](CCCNC(=N)N)NC(=O)[C@H](Cc1c[nH]c2ccccc12)NC(=O)[C@@H]1CCCN1C(=O)[C@H](CC(N)=O)NC(=O)[C@H](CCC(N)=O)NC(=O)[C@H](CC(=O)O)NC(=O)[C@H](CC(=O)O)NC(=O)[C@H](C)N)C(=O)N[C@@H](CC(=O)O)C(=O)N[C@@H](CC(C)C)C(=O)N[C@@H](CC(C)C)C(=O)N[C@@H](Cc1ccccc1)C(=O)N1CCC[C@H]1C(=O)N[C@H](C(=O)N[C@@H](CC(=O)O)C(=O)N[C@H](C(=O)N[C@@H](CC(C)C)C(=O)N[C@@H](CC(C)C)C(=O)N[C@@H](CC(C)C)C(=O)N[C@@H](CC(=O)O)C(=O)N[C@@H](CC(C)C)C(=O)N[C@@H](CC(C)C)C(=O)N[C@@H](Cc1c[nH]c2ccccc12)C(=O)N[C@@H](CC(=O)O)C(=O)N[C@@H](C)C(=O)N[C@@H](CC(=O)O)C(=O)N[C@@H](CCC(=O)O)C(=O)N[C@@H](CSS[C@H](C)COC(=O)OCc1ccc(-c2nc3c(C(N)=O)cccc3[nH]2)cc1)C(=O)NCC(=O)O)[C@@H](C)O)[C@@H](C)O` [Example 7], the concentration for half-maximal inhibition (IC50) on PARP [1] (read-out: IC50 Enzymatic Assay 1; Examples cleaved per Example A (crude cleavage solution); R^8H starting materials as such; 1 uM NAD) was found to be 111 nM; at PARP [2] (setting [3]), 6.45 nM.

With `CC(C)C[C@H](NC(=O)[C@H](Cc1ccc(O)cc1)NC(=O)[C@H](C)NC(=O)[C@H](CCCNC(=N)N)NC(=O)[C@H](Cc1c[nH]c2ccccc12)NC(=O)[C@@H]1CCCN1C(=O)[C@H](CC(N)=O)NC(=O)[C@H](CCC(N)=O)NC(=O)[C@H](CC(=O)O)NC(=O)[C@H](CC(=O)O)NC(=O)[C@H](C)N)C(=O)N[C@@H](CC(=O)O)C(=O)N[C@@H](CC(C)C)C(=O)N[C@@H](CC(C)C)C(=O)N[C@@H](Cc1ccccc1)C(=O)N1CCC[C@H]1C(=O)N[C@H](C(=O)N[C@@H](CC(=O)O)C(=O)N[C@H](C(=O)N[C@@H](CC(C)C)C(=O)N[C@@H](CC(C)C)C(=O)N[C@@H](CC(C)C)C(=O)N[C@@H](CC(=O)O)C(=O)N[C@@H](CC(C)C)C(=O)N[C@@H](CC(C)C)C(=O)N[C@@H](Cc1c[nH]c2ccccc12)C(=O)N[C@@H](CC(=O)O)C(=O)N[C@@H](C)C(=O)N[C@@H](CC(=O)O)C(=O)N[C@@H](CCC(=O)O)C(=O)N[C@@H](CSS[C@H](C)COC(=O)NCN1c2cc(F)cc3c(=O)[nH]nc(c23)[C@H](c2ncnn2C)[C@H]1c1ccc(F)cc1)C(=O)NCC(=O)O)[C@@H](C)O)[C@@H](C)O` [Example 41], the IC50 at PARP [2] (setting [3]) amounted to 1.9 nM; with DLD-1 BRCA2−/− cells, 43 nM.

Consider `CC(C)C[C@H](NC(=O)[C@H](Cc1ccc(O)cc1)NC(=O)[C@H](C)NC(=O)[C@H](CCCNC(=N)N)NC(=O)[C@H](Cc1c[nH]c2ccccc12)NC(=O)[C@@H]1CCCN1C(=O)[C@H](CC(N)=O)NC(=O)[C@H](CCC(N)=O)NC(=O)[C@H](CC(=O)O)NC(=O)[C@H](CC(=O)O)NC(=O)[C@H](C)N)C(=O)N[C@@H](CC(=O)O)C(=O)N[C@@H](CC(C)C)C(=O)N[C@@H](CC(C)C)C(=O)N[C@@H](Cc1ccccc1)C(=O)N1CCC[C@H]1C(=O)N[C@H](C(=O)N[C@@H](CC(=O)O)C(=O)N[C@H](C(=O)N[C@@H](CC(C)C)C(=O)N[C@@H](CC(C)C)C(=O)N[C@@H](CC(C)C)C(=O)N[C@@H](CC(=O)O)C(=O)N[C@@H](CC(C)C)C(=O)N[C@@H](CC(C)C)C(=O)N[C@@H](Cc1c[nH]c2ccccc12)C(=O)N[C@@H](CSS[C@@H](C)COC(=O)NCN1c2cc(F)cc3c(=O)[nH]nc(c23)[C@H](c2ncnn2C)[C@H]1c1ccc(F)cc1)C(=O)NCC(=O)O)[C@@H](C)O)[C@@H](C)O` [Example 42], for which the IC50 at PARP [2] (setting [3]) worked out at 1.4 nM; in the test with DLD-1 BRCA2−/− cells, 53 nM.

For `NC(=O)c1cccc2[nH]c(-c3ccc(CO)cc3)nc12` [R^8H-1, 2-[4-(hydroxymethyl)phenyl]-1H-benzimidazole-4-carboxamide, reference compound], the results for the IC50 at PARP [1] (Examples cleaved per Example A (crude cleavage solution); R^8H starting materials as such; 1 uM NAD; read-out: IC50 Enzymatic Assay 1) and on PARP [2] were 96.8 nM and 6.4 nM, respectively.

As usually defined, the IC50 is the midpoint of a concentration-inhibition curve.
